Results: US20120101093A1, “SUBSTITUTED IMIDAZO[1,2-A]PYRIDINE DERIVATIVES, PHARMACEUTICAL COMPOSITIONS, AND METHODS OF USE AS BETA-SECRETASE INHIBITORS” (HIGH POINT PHARMACEUTICALS, LLC, priority 2009, published 2012)

These compounds were tested against T1, BACE-1 enzyme (Homo sapiens, UniProt P56817) (assay: BACE Fluorescence Resonance Energy Transfer (FRET) Assay). Conditions: pH 4-4.5, 30 min pre-incubation, about 1.5 hours reaction.
T1 construct: purchased R & D Systems 931AS
Format: biochemical
How it was run: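 Fluorescence (ex 540, em 585 nm) after ~1.5 h room-temperature cleavage of a quenched rhodamine peptide tracks BACE-1 activity. Enzyme and compound first sit 30 min in pH 4-4.5 acetate buffer with CHAPS, Triton X-100, EDTA, 7.5% DMSO. Values given as IC50 or % inhibition.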

T1 sequence (P56817 46-457 limits assumed): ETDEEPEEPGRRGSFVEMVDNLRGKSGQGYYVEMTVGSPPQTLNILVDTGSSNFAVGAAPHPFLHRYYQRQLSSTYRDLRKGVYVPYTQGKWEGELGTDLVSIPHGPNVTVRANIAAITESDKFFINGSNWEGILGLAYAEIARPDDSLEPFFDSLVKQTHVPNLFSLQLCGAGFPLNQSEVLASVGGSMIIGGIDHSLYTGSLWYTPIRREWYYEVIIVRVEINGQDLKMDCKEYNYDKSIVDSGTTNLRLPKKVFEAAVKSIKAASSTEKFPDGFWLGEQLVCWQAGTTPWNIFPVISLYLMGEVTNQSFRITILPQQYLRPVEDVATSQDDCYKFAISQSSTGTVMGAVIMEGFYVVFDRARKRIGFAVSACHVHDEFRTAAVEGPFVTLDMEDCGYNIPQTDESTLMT

Row | Compound | IC50 [µM]
1 | CCN(C)Cc1cccn2cc(C(=O)Nc3nc4cc(-c5cccc(C(F)(F)F)c5)ccc4[nH]3)nc12 [Example 195, 8-[(Ethyl-methyl-amino)-methyl]-imidazo[1,2-a]pyridine-2-carboxylic acid [5-(3-trifluoromethyl-phenyl)-1H-benzoimidazol-2-yl]-amide] | 1.08
2 | O=C(Nc1nc2cc(-c3cccc(C(F)(F)F)c3)ccc2[nH]1)c1cn2cccc(CN3CCOCC3)c2n1 [Example 198, 8-Morpholin-4-ylmethyl-imidazo[1,2-a]pyridine-2-carboxylic acid [5-(3-trifluoromethyl-phenyl)-1H-benzoimidazol-2-yl]-amide] | 1.14
3 | O=C(Nc1nc2cc(-c3cccc(C(F)(F)F)c3)ccc2[nH]1)c1cn2ccc(CO)cc2n1 [Example 200, 7-Hydroxymethyl-imidazo[1,2-a]pyridine-2-carboxylic acid [5-(3-trifluoromethyl-phenyl)-1H-benzoimidazol-2-yl]-amide] | 0.46
4 | O=C(Nc1nc2cc(-c3cccc(C(F)(F)F)c3)ccc2[nH]1)c1cn2ccc(CN3CCNCC3)cc2n1 [Example 203, 7-Piperazin-1-ylmethyl-imidazo[1,2-a]pyridine-2-carboxylic acid [5-(3-trifluoromethyl-phenyl)-1H-benzoimidazol-2-yl]-amide] | 0.66
5 | COCCNCc1ccn2cc(C(=O)Nc3nc4cc(-c5cccc(C(F)(F)F)c5)ccc4[nH]3)nc2c1 [Example 208, 7-[(2-Methoxy-ethylamino)-methyl]-imidazo[1,2-a]pyridine-2-carboxylic acid [5-(3-trifluoromethyl-phenyl)-1H-benzoimidazol-2-yl]-amide] | 0.23
6 | O=C(Nc1nc2cc(-c3cccc(C(F)(F)F)c3)ccc2[nH]1)c1cn2ccc(CNCCN3CCOCC3)cc2n1 [Example 210, 7-[(2-Morpholin-4-yl-ethylamino)-methyl]-imidazo[1,2-a]pyridine-2-carboxylic acid [5-(3-trifluoromethyl-phenyl)-1H-benzoimidazol-2-yl]-amide] | 0.18
7 | CCN(CCO)Cc1ccn2cc(C(=O)Nc3nc4cc(-c5cccc(C(F)(F)F)c5)ccc4[nH]3)nc2c1 [Example 211, 7-{[Ethyl-(2-hydroxy-ethyl)-amino]-methyl}-imidazo[1,2-a]pyridine-2-carboxylic acid [5-(3-trifluoromethyl-phenyl)-1H-benzoimidazol-2-yl]-amide] | 0.24
8 | CN(C)CCNCc1ccn2cc(C(=O)Nc3nc4cc(-c5cccc(C(F)(F)F)c5)ccc4[nH]3)nc2c1 [Example 212, 7-[(2-Dimethylamino-ethylamino)-methyl]-imidazo[1,2-a]pyridine-2-carboxylic acid [5-(3-trifluoromethyl-phenyl)-1H-benzoimidazol-2-yl]-amide] | 0.26
9 | Cn1cc(-c2cccc3nc(C(=O)Nc4nc5cc(-c6cccc(C(F)(F)F)c6)ccc5[nH]4)cn23)cn1 [Example 213, 5-(1-methyl-1H-pyrazol-4-yl)-N-{5-[3-(trifluoromethyl)phenyl]-1H-benzimidazol-2-yl}imidazo[1,2-a]pyridine-2-carboxamide] | 0.26
10 | O=C(Nc1nc2cc(-c3cccc(C(F)(F)F)c3)ccc2[nH]1)c1cn2cccc(-c3ccccc3)c2n1 [Example 216, 8-phenyl-N-{5-[3-(trifluoromethyl)phenyl]-1H-benzimidazol-2-yl}imidazo[1,2-a]pyridine-2-carboxamide] | 0.65
11 | O=C(Nc1nc2cc(-c3cccc(C(F)(F)F)c3)ccc2[nH]1)c1cn2c(-c3ccncc3)cccc2n1 [Example 217, 5-(pyridin-4-yl)-N-{5-[3-(trifluoromethyl)phenyl]-1H-benzimidazol-2-yl}imidazo[1,2-a]pyridine-2-carboxamide] | 0.15
12 | O=C(Nc1nc2cc(-c3cccc(C(F)(F)F)c3)ccc2[nH]1)c1cn2c(C3CCNCC3)cccc2n1 [Example 218, 5-(piperidin-4-yl)-N-{5-[3-(trifluoromethyl)phenyl]-1H-benzimidazol-2-yl}imidazo[1,2-a]pyridine-2-carboxamide] | 0.45
13 | CCCc1cccc2nc(C(=O)Nc3nc4cc(-c5cccc(C(F)(F)F)c5)ccc4[nH]3)cn12 [Example 220, 5-propyl-N-{5-[3-(trifluoromethyl)phenyl]-1H-benzimidazol-2-yl}imidazo[1,2-a]pyridine-2-carboxamide] | 0.38
14 | CCCc1cccc2nc(C(=O)Nc3nc4cc(-c5cccc(OC(F)(F)F)c5)ccc4[nH]3)cn12 [Example 221, 5-propyl-N-{5-[3-(trifluoromethoxy)phenyl]-1H-benzimidazol-2-yl}imidazo[1,2-a]pyridine-2-carboxamide] | 0.28
15 | CC(C)c1cccc2nc(C(=O)Nc3nc4cc(-c5cccc(C(F)(F)F)c5)ccc4[nH]3)cn12 [Example 222, 5-(propan-2-yl)-N-{5-[3-(trifluoromethyl)phenyl]-1H-benzimidazol-2-yl}imidazo[1,2-a]pyridine-2-carboxamide] | 1.23
16 | CC(C)c1cccc2nc(C(=O)Nc3nc4cc(-c5cccc(OC(F)(F)F)c5)ccc4[nH]3)cn12 [Example 223, 5-(propan-2-yl)-N-{5-[3-(trifluoromethoxy)phenyl]-1H-benzimidazol-2-yl}imidazo[1,2-a]pyridine-2-carboxamide] | 0.83
17 | CCc1cccc2nc(C(=O)Nc3nc4cc(-c5cccc(OC(F)(F)F)c5)ccc4[nH]3)cn12 [Example 224, 5-ethyl-N-{5-[3-(trifluoromethoxy)phenyl]-1H-benzimidazol-2-yl}imidazo[1,2-a]pyridine-2-carboxamide] | 0.55
18 | O=C(Nc1nc2cc(-c3cc(F)cc(Cl)c3)ccc2[nH]1)c1cn2c(C(=O)NC3CCNCC3)cccc2n1 [Example 225, Imidazo[1,2-a]pyridine-2,5-dicarboxylic acid 2-{[5-(3-chloro-5-fluoro-phenyl)-1H-benzoimidazol-2-yl]-amide} 5-piperidin-4-ylamide] | 0.48
19 | CNC(=O)c1cccn2cc(C(=O)Nc3nc4cc(-c5cccc(C(F)(F)F)c5)ccc4[nH]3)nc12 [Example 229, Imidazo[1,2-a]pyridine-2,8-dicarboxylic acid 8-methylamide 2-{[5-(3-trifluoromethyl-phenyl)-1H-benzoimidazol-2-yl]-amide}] | 0.16
20 | CN(C)C(=O)c1cccn2cc(C(=O)Nc3nc4cc(-c5cccc(C(F)(F)F)c5)ccc4[nH]3)nc12 [Example 230, Imidazo[1,2-a]pyridine-2,8-dicarboxylic acid 8-dimethylamide 2-{[5-(3-trifluoromethyl-phenyl)-1H-benzoimidazol-2-yl]-amide}] | 0.28
21 | COCCNC(=O)c1cccn2cc(C(=O)Nc3nc4cc(-c5cccc(C(F)(F)F)c5)ccc4[nH]3)nc12 [Example 231, Imidazo[1,2-a]pyridine-2,8-dicarboxylic acid 8-[(2-methoxy-ethyl)-amide] 2-{[5-(3-trifluoromethyl-phenyl)-1H-benzoimidazol-2-yl]-amide}] | 0.31
22 | O=C(Nc1nc2cc(-c3cccc(Cl)c3)ccc2[nH]1)c1cn2cc(N3CC[C@H](O)C3)ccc2n1 [Example 232, 6-((S)-3-Hydroxy-pyrrolidin-1-yl)-imidazo[1,2-a]pyridine-2-carboxylic acid [5-(3-chloro-phenyl)-1H-benzoimidazol-2-yl]-amide] | 0.14
23 | CO[C@H]1CCN(c2ccc3nc(C(=O)Nc4nc5cc(-c6cccc(Cl)c6)ccc5[nH]4)cn3c2)C1 [Example 233, 6-((S)-3-Methoxy-pyrrolidin-1-yl)-imidazo[1,2-a]pyridine-2-carboxylic acid [5-(3-chloro-phenyl)-1H-benzoimidazol-2-yl]-amide] | 0.41
24 | O=C(Nc1nc2cc(-c3cccc(Cl)c3)ccc2[nH]1)c1cn2cc(OCCOC3CCCCO3)ccc2n1 (stereo not drawn) [Example 234, 6-[2-(Tetrahydro-pyran-2-yloxy)-ethoxy]-imidazo[1,2-a]pyridine-2-carboxylic acid [5-(3-chloro-phenyl)-1H-benzoimidazol-2-yl]-amide] | 0.35
25 | Cc1c(N2CC[C@H](O)C2)ccc2nc(C(=O)Nc3nc4cc(-c5cc(F)cc(Cl)c5)ccc4[nH]3)cn12 [Example 235, 6-((S)-3-Hydroxy-pyrrolidin-1-yl)-5-methyl-imidazo[1,2-a]pyridine-2-carboxylic acid [5-(3-chloro-5-fluoro-phenyl)-1H-benzoimidazol-2-yl]-amide] | 0.69
26 | CO[C@@H]1CCN(c2ccc3nc(C(=O)Nc4nc5cc(-c6cc(F)cc(Cl)c6)ccc5[nH]4)cn3c2C)C1 [Example 236, 6-((R)-3-Methoxy-pyrrolidin-1-yl)-5-methyl-imidazo[1,2-a]pyridine-2-carboxylic acid [5-(3-chloro-5-fluoro-phenyl)-1H-benzoimidazol-2-yl]-amide] | 0.25
27 | CO[C@H]1CCN(c2ccc3nc(C(=O)Nc4nc5cc(-c6cc(F)cc(Cl)c6)ccc5[nH]4)cn3c2C)C1 [Example 237, 6-((S)-3-Methoxy-pyrrolidin-1-yl)-5-methyl-imidazo[1,2-a]pyridine-2-carboxylic acid [5-(3-chloro-5-fluoro-phenyl)-1H-benzoimidazol-2-yl]-amide] | 0.23
28 | Cc1c(C#CCO)ccc2nc(C(=O)Nc3nc4cc(-c5cccc(C(F)(F)F)c5)ccc4[nH]3)cn12 [Example 238, 6-(3-Hydroxy-prop-1-ynyl)-5-methyl-imidazo[1,2-a]pyridine-2-carboxylic acid [5-(3-trifluoromethyl-phenyl)-1H-benzoimidazol-2-yl]-amide] | 0.22
29 | COCCn1c(NC(=O)c2cn3c(C)cccc3n2)nc2ccc(-c3cccc(C(F)(F)F)c3)cc21 [Example 239, 5-Methyl-imidazo[1,2-a]pyridine-2-carboxylic acid [1-(2-methoxy-ethyl)-6-(3-trifluoromethyl-phenyl)-1H-benzoimidazol-2-yl]-amide] | 0.7
30 | Cc1cccn2cc(C(=O)Nc3nc4cc(-c5cccc(C(F)(F)F)c5)ccc4n3C)nc12 [Example 241, 8-Methyl-imidazo[1,2-a]pyridine-2-carboxylic acid [1-methyl-5-(3-trifluoromethyl-phenyl)-1H-benzoimidazol-2-yl]-amide] | 1.5
